From patent US9567625B2, “Method for detection of microorganism and kit for detection of microorganism” (MORINAGA MILK INDUSTRY CO., LTD., priority 2006, dated 2017)

Experiments:
[1] = system: 16S rRNA gene of Citrobacter; experiment: PCR targeting the 16S rRNA gene after EMA treatment, electrophoresis; assay type: cell-based, Citrobacter koseri; settings: EMA-treated injured cells of Citrobacter, EMA 10 μl of 1000 μg/ml per 1 ml, 4° C. 30 minutes, visible light 10 minutes
Description: (§1) The live cell counts of these live cell suspensions were Escherichia coli: 3.2×10^8 cfu/ml, Citrobacter: 6.7×10^7 cfu/ml, Salmonella: 1.9×10^8 cfu/ml, and Klebsiella: 4.8×10^8 cfu/ml.
(§2) 10 μl of an EMA solution prepared at a concentration of 1000 μg/ml by dissolving EMA (Sigma, catalog number: E2028) in sterilized water, and filtering the solution through a 0.45-μm microfilter was added to each of the suspensions of the gram-negative bacteria (live cells and injured cells) and gram-positive bacteria (live cells and injured cells) in a volume of 1 ml, and the mixture was left at 4° C. for 30 minutes under light shielding. Then, the suspension was placed on ice, and irradiated with visible light of 500 W from a lamp (FLOOD PRF, 100 V, 500 W, Iwasaki Electric Co., Ltd.) disposed at a distance of 20 cm from the suspension for 10 minutes. The above steps of adding the EMA solution and irradiating visible light may also be referred to as the “EMA treatment”.
(§3) 990 μl of physiological saline was added to each microtube, and the mixture was sufficiently stirred. […]

[2] = system: 16S rRNA gene of Klebsiella; experiment: as above; assay type: cell-based, Klebsiella oxytoca; settings: EMA-treated injured cells of Klebsiella, EMA 10 μl of 1000 μg/ml per 1 ml, 4° C. 30 minutes, visible light 10 minutes
Description: as §1, §2, §3

[3] = system: 16S rRNA gene of the other bacteria; experiment: as above; assay type: cell-based; settings: EMA-treated injured cells of the other bacteria, EMA 10 μl of 1000 μg/ml per 1 ml, 4° C. 30 minutes, visible light 10 minutes
Description: as §1
(§4) The live cell counts of these live cell suspensions were Bacillus: 3.0×10^7 cfu/ml, Listeria: 1.3×10^8 cfu/ml, and Staphylococcus: 1.1×10^6 cfu/ml.
as §2, §3

[4] = system: 23S rRNA gene of gram-negative bacteria and gram-positive bacteria; experiment: PCR targeting the 23S rRNA gene after EMA treatment, electrophoresis; assay type: cell-based; settings: 150 ng template DNA in 50 μl
Description: as §1, §4, §2, §3

[5] = system: hlyA gene of Listeria; experiment: PCR targeting the hlyA gene after EMA treatment and topoisomerase poison or DNA gyrase poison treatment; assay type: cell-based, Listeria monocytogenes; settings: Listeria injured cells
Description: (§5) The live cell count of the live cell suspension was 1.3×10^8 cfu/ml
(§6) Therefore, the time for leaving the suspension at 4° C. under light shielding after the addition of EMA was shortened to 5 minutes, and the visible light irradiation time was also shortened to 5 minutes.
(§7) As described above, 1 tube of 1 ml EMA-untreated live cell suspension, […] of 1 ml EMA-treated live cell suspension, 1 tube of 1 ml EMA-untreated injured cell suspension, and 7 tubes of 1 ml EMA-treated injured cell suspension were prepared.
(§8) The EMA-treated live cell and injured cell suspensions were divided into 6 sets, each of which consisted of 1 tube of the live cell suspension and 1 tube of injured cell suspension.
A master mix (total volume: 50 μl) of the following composition was prepared. • Ex-Taq® (Takara Shuzo, catalog number: RR001B; TaKaRa Ex Taq enzyme): 0.25 μl • 10× Ex-Taq® Buffer (Takara Shuzo, catalog number: RR001B): 5 μl • dNTP mixture (Takara Shuzo, catalog number: RR001B): 4 μl • 5 pmol/μl SEQ ID NO: 7 (hlyA-F) DNA: 2.5 μl • 5 pmol/μl SEQ ID NO: 8 (hlyA-R) DNA: 2.5 μl • 2×SYBR® Green (cyanine dye) (BMA, catalog number: 50513): 10 μl • Sterilized water: 15.75 μl • Template DNA (15 ng/μl): 10 μl 3-1-2) PCR Thermal Cycle Profile for Amplification of hlyA Gene
Each of the DNA solutions prepared in 2-3) mentioned above was diluted to 15 ng/μl with TE buffer, and 10 μl of the diluted solution was used as a template DNA in 3-1-1) mentioned above. That is, 150 ng of the template DNA was contained in 50 μl of the PCR mixture. As a negative control, 10 μl of TE buffer was used.
According to the PCR thermal cycle profile shown in 3-1-2) mentioned above, PCR was performed by using a real-time PCR apparatus i Cycler® (Biorad, model number: iQ).
(§9) For the detection of the hlyA gene amplification product, 3% agarose gel was used.

[6] = system: 16S rRNA gene of Listeria; experiment: PCR targeting the 16S rRNA gene after EMA treatment and topoisomerase poison or DNA gyrase poison treatment; assay type: cell-based, Listeria monocytogenes; settings: Listeria injured cells
Description: as §5, §6, §7, §8
The “PCR thermal cycle profile for amplification of 16S rRNA gene” mentioned in Example 3, 3-2) (Table 3) was applied.
Each of the DNA solutions prepared in 2-3) was diluted to 15 ng/μl with TE buffer, and 10 μl of the diluted solution was used as a template DNA in 3-1-1) or 3-2-1) mentioned above. That is, 150 ng of the template DNA was contained in 50 μl of the PCR mixture. As a negative control, 10 μl of TE buffer was used.
According to the PCR thermal cycle profile shown in 3-2-2) or 3-2-3) mentioned above, PCR was performed by using a real-time PCR apparatus i Cycler® (Biorad, model number: iQ).
as §9

[7] = system: 23S rRNA gene of Enterobacter; experiment: Real-time PCR and TM analysis targeting the 23S rRNA gene after ciprofloxacin treatment; assay type: cell-based, Enterobacter sakazakii; settings: ciprofloxacin 72 hours; for result of PCR: PCR terminated after 27 cycles
Description: (§10) A master mix (total volume: 50 μl) of the following composition was prepared. • Ex-Taq® (Takara Shuzo, catalog number: RR001B; TaKaRa Ex Taq enzyme: 0.25 μl • 10× Ex-Taq® Buffer (Takara Shuzo, catalog number: RR001B): 5 μl • dNTP mixture (Takara Shuzo, catalog number: RR001B): 4 μl • 5 pmol/μl SEQ ID NO: 1 (23S-F) DNA: 2.5 μl • 5 pmol/μl SEQ ID NO: 2 (23S-R) DNA: 2.5 μl • 5 pmol/μl SEQ ID NO: 3 (23S-MF) DNA: 2.5 μl • 5 pmol/μl SEQ ID NO: 4 (23S-MR) DNA: 2.5 μl • 2×SYBR® Green (cyanine dye) (BMA, catalog number: 50513): 10 μl • Sterilized water: […] • Template DNA (15 ng/μl): 10 μl
The primers of SEQ ID NOS: 1 and 2 are primers for amplifying substantially all the region of 23S rRNA, and they provide an amplification fragment of about 2840 bp mainly from gram-negative bacteria. The primers of SEQ ID NOS: 3 and 4 correspond to the center region of 23S rRNA, and they provide an amplification fragment of about 900 bp from gram-positive bacteria (also from gram negative bacteria).
Each of the DNA solutions prepared in 1-3) was diluted to 15 ng/μl with TE buffer, and 10 μl of the diluted solution was used as a template DNA in 2-1). That is, 150 ng of the template DNA was contained in 50 μl of the PCR reaction mixture. As a negative control, 10 μl of TE buffer was used.
According to the PCR thermal cycle profile shown in 2-2) mentioned above, PCR and TM analysis (melting temperature analysis) of the amplification product were performed by using a real-time PCR apparatus i Cycler® (Biorad, model number: iQ). The threshold value (boundary value) of real-time PCR was set to a value obtained by multiplying the standard deviation SD of fluorescence amounts obtained with SYBR® Green (cyanine dye) for 0 to 10 cycles by 10. In each real-time PCR amplification curve, number of cycle showing a value exceeding the threshold value is referred to as “Ct value” hereafter.

[8] = system: 23S rRNA gene of Listeria; experiment: Real-time PCR targeting the 23S rRNA gene after ciprofloxacin treatment; assay type: cell-based, Listeria monocytogenes; settings: PCR terminated after 20 cycles
Description: as §10
The primers of SEQ ID NOS: 1 and 2 are primers for amplifying substantially all the region of 23S rRNA, and they provide an amplification fragment of about 2840 bp mainly from gram-negative bacteria. […]
According to the PCR thermal cycle profile shown in 2-2) mentioned above, PCR and TM analysis (melting temperature analysis) of the amplification product were performed by using a real-time PCR apparatus i Cycler® (Biorad, model number: iQ). The threshold value (boundary value) of real-time PCR was set to a value obtained by multiplying the standard deviation SD of fluorescence amounts obtained with SYBR® Green (cyanine dye) for 0 to 10 cycles by 10. […]

[9] = EMA treatment alone (5 minutes, visible light 5 minutes)
[10] = poison used together with EMA treatment, 30° C. for 30 minutes

CC[n+]1c(-c2ccccc2)c2cc(N=[N+]=[N-])ccc2c2ccc(N)cc21 [EMA, ethidium monoazide]
PCR amplification product [1]: no PCR amplification product was observed
PCR amplification product [2]: no PCR amplification product was observed
PCR amplification product [3]: amplification products were observed
inhibition of PCR ([4]; injured cells at a level of 10^8 cfu/ml): completely inhibited
inhibition of PCR ([4]; live cells): not substantially completely inhibited
inhibition of DNA amplification [5, 9]: only slightly inhibited
inhibition of DNA amplification [6, 9]: only slightly inhibited

CC[C@@]1(O)C(=O)OCc2c1cc1n(c2=O)Cc2cc3ccccc3nc2-1 [camptothecin]
inhibition of DNA amplification [6, 10]: markedly inhibited

O=C(O)c1cn(C2CC2)c2cc(N3CCNCC3)c(F)cc2c1=O [ciprofloxacin]
Ct (injured cells, 72 hours of Cip)−Ct (injured cells, No Cip) ([7]; Enterobacter injured cells): 17
result of PCR ([7]; Enterobacter injured cells): negative
Ct (live cells, 72 hours of Cip)−Ct (live cells, No Cip) ([7]; Enterobacter live cells): 13
result of PCR ([7]; Enterobacter live cells): positive
TM pattern analysis of the PCR amplification product ([7]; Enterobacter sakazakii injured cells): is not the targeted amplification product
TM pattern analysis of the PCR amplification product ([7]; Enterobacter sakazakii live cells): corresponds to the 23S rRNA gene as the target
result of PCR ([8]; Listeria injured cells): negative
result of PCR ([8]; Listeria live cells): positive

Cc1c2ccncc2c(C)c2c1[nH]c1ccccc12 [ellipticine]
inhibition of DNA amplification [6, 10]: markedly inhibited

COc1cc([C@@H]2c3cc4c(cc3[C@@H](O[C@@H]3O[C@@H]5CO[C@@H](C)O[C@H]5[C@H](O)[C@H]3O)[C@H]3COC(=O)[C@H]23)OCO4)cc(OC)c1O [etoposide]
inhibition of DNA amplification [5, 10]: markedly inhibited
inhibition of DNA amplification [6, 10]: markedly inhibited

O=C1c2c(O)ccc(O)c2C(=O)c2c(NCCNCCO)ccc(NCCNCCO)c21 [mitoxantrone]
inhibition of DNA amplification [5, 10]: markedly inhibited
